Results from patent US6017919A, “Compounds and pharmaceutical use thereof” (Japan Tobacco Inc., priority 1996, dated 2000).

Tested on: anti-thy-1 antibody-induced nephritis
Assay: Anti-thy-1 antibody-induced nephritis model
Type: in vivo, male Wistar rats
Conditions: for Nuclear cell count in nephritic glomerulus / Urinary protein: oral, once a day until day 6, rats
Protocol: [IV] Anti-thy-1 antlbody-induced nephritis model (in vivo)
The test compound (prednisolone, compound of Example 7-35) was orally administered to male Wistar rats (6 weeks old), and one hour later, an anti-thy-1 antibody (ox-7, 0.938 mg/ml) was administered at 0.1 ml/rat from the tail vein. The test compound was administered once a day thereafter until day 6. At day 6, the rats were forcibly loaded with 8 ml of tap water and then deprived of water for consecutive 16 hours, during which period urine samples were taken from the rats. At day 7, the rats were killed by exsanguination. The kidney was removed, weighed and fixed with formalin, and tissue samples (PAS stained) were prepared therefrom. Evaluation was done by measuring urinary protein and nuclear cell count in nephritic glomerulus section. The test compound was prepared into a suspension with 0.5% HPMC and administered at 10 ml/kg per dose.
Sham no administration of anti-thy-1 antibody,
loaded with water and orally administered
Control administration of anti-thy-1 antibody,
Prednisolone administration of anti-thy-1 antibody,
Compound of Ex. 7-35 with said test compound

Row | Structure (SMILES) | Nuclear cell count in nephritic glomerulus (3 mg/kg) [nuclei/glomerulus] | Urinary protein (3 mg/kg) [mg/16 hr] | Nuclear cell count in nephritic glomerulus (0.1 mg/kg) [nuclei/glomerulus] | Urinary protein (0.1 mg/kg) [mg/16 hr] | suppressive effect on increase in nuclear cell count in nephritic glomerulus (0.1 mg/kg, result in words) | suppressive effect on increase in urinary protein (0.1 mg/kg, result in words)
1 | C[C@]12C=CC(=O)C=C1CC[C@@H]1[C@@H]2[C@@H](O)C[C@@]2(C)[C@H]1CC[C@]2(O)C(=O)CO [Prednisolone, prednisolone, reference compound] | 76.9 ± 0.9 | 20.9 ± 2.7 | – | – | – | –
2 | CCCCCOc1ccc2c(c1OCCCCC)CN(CCc1ccc(N)cc1)C2=O.Cl [Example 7-35, 2-[2-(4-aminophenyl)ethyl]-4,5-bispentyloxy-2,3-dihydroisoindol-1-one hydrochloride] | – | – | 84.8 ± 1.2 | 15.2 ± 2.4 | significant suppressive effect | significant suppressive effect
